How the values were obtained:
Assay in all cases: binding to AX14596 beads (HeLa lysate, SILAC MS)
[1] = target: T1, BLMH (Homo sapiens, UniProt Q13867)
T1 construct: endogenous in cells; host or cells: HeLa S3
T1 sequence (Q13867 1-455): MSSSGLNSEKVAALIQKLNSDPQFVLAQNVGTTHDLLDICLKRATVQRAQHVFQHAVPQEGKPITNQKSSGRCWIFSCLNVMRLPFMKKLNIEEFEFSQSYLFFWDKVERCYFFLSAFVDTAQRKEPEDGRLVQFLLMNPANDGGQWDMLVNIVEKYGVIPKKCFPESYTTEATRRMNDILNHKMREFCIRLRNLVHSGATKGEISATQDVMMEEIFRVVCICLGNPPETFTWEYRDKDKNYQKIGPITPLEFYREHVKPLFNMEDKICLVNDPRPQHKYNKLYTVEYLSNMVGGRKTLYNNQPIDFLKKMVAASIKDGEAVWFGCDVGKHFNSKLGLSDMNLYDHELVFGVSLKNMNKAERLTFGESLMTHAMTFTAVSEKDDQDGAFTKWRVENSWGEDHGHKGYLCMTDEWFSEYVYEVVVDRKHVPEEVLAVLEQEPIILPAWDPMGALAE
Protocol: (§1) Differentially SILAC-encoded cell lysates were either incubated with the inhibitor beads displaying immobilized AX14596 or control resin devoid of ligand. In parallel, the supernatant from the first binding step was subjected to a second incubation with the AX14596 resin (FIG. 4). The resulting three elution fractions were combined, resolved by gel electrophoresis, proteolytically digested and the relative abundance of the retained proteins quantified. Proteins showing considerable binding to the control resin were identified as non-specific interactors and therefore not considered further. […] These target-specific ratios were similar in “label switch” experiments (FIGS. 6a and 6c). The binding equilibrium was determined in parallel control SILAC experiments as well as the excess of the immobilized compound over its cellular targets, the excess preferably being a molar excess (FIG. 7 and FIG. 8).
(§2) Cysteine carbamidomethylation was set as a fixed modification and N-acetyl protein and oxidized methionine were allowed as variable modifications. Spectra that were determined to result from heavy labeled peptides in the pre-search detection of SILAC partners by MaxQuant were searched with the fixed modifications Lys^4, Lys^8, Arg^6 and Arg^10, whereas MS/MS spectra for which no SILAC state could be assigned before database searching were searched with Lys^4, Lys^8, Arg^6 and Arg^10 as variable modifications. The mass tolerance was set to 5 ppm for monoisotopic precursor ions and to 0.5 Da for MS/MS peaks. The minimum peptide length was set to 6 amino acids and up to three missed cleavages and three isotopically labeled amino acids were permitted per peptide. The accepted false discovery rate (FDR) was 1% for the proteins and peptides. The cut-off for the posterior error probability (PEP) of peptides was set to 10%. Peptide PEPs were determined by generating Mascot score and peptide-length-dependent histograms for both the forward and the reverse hits and then deriving the probability of a false identification for a given top-scoring peptide using Bayes' theorem. The PEPs of peptides belonging to the same proteins were then multiplied. Each peptide sequence was considered only once with the lowest PEP determined in case of multiple sequencing of the same isotopic pattern or of peptide species with different SILAC, charge or modification states. Proteins were then sorted according to their products of their peptide PEPs and included until a FDR of 1% was reached according to the fraction of reverse proteins contained in the protein list. In addition to the FDR threshold applied for protein identification, proteins were only included when they were identified with at least two peptides (of which one was required to be unique for the protein) and quantified if at least on quantifiable SILAC pair was associated with them. Outliers were not removed as protein ratios were calculated as the median instead of the average of all peptide ratios. For peptides shared among different identified proteins, SILAC ratios were only considered for the ratio of the protein identified with the highest number of unique peptides. Protein ratios for the different in vitro association experiments were corrected for the initial SILAC pooling ratio, which was determined from the median of protein ratios in pooled SILAC-encoded cell extracts.

[2] = target: T2, EphB2 (Homo sapiens, UniProt P29323)
T2 sequence (P29323 19-1055): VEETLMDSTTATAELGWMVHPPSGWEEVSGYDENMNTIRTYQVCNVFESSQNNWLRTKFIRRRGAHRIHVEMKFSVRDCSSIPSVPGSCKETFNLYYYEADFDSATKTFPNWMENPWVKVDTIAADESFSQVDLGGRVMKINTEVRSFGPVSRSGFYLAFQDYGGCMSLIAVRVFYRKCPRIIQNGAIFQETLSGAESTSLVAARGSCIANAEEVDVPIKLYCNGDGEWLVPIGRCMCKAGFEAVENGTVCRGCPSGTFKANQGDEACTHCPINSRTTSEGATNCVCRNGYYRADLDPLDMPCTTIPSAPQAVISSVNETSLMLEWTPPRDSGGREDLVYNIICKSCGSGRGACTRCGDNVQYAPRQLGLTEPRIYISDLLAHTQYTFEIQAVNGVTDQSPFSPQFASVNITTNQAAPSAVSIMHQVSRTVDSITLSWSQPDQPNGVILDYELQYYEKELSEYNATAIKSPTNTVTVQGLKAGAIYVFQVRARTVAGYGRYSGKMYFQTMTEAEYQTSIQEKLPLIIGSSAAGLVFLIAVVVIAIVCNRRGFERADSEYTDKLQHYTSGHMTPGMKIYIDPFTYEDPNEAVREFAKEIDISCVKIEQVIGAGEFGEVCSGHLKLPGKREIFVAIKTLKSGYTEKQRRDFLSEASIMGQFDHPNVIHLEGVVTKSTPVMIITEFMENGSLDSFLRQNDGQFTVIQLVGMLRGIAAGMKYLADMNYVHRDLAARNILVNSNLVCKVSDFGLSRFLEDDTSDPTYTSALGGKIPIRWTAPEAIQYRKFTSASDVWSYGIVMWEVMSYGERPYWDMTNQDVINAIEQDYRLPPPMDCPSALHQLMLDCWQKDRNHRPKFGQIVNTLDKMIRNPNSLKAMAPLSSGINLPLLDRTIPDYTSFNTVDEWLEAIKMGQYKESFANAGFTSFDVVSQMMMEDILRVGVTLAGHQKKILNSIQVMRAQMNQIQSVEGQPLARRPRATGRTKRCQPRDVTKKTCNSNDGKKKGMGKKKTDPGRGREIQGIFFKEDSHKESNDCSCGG
Protocol: as §1, §2

[3] = target: T3, PKD3 (PRKD3) (Homo sapiens, UniProt O94806)
T3 construct: endogenous in cells; host or cells: HeLa S3
Protocol: as §1, §2

[4] = target: p38a (MAPK14, IPI00221141) (Homo sapiens, UniProt Q16539)
Protocol: as §1, §2

p38a (MAPK14, IPI00221141), sequence (Q16539 1-360 isoform Q16539-2): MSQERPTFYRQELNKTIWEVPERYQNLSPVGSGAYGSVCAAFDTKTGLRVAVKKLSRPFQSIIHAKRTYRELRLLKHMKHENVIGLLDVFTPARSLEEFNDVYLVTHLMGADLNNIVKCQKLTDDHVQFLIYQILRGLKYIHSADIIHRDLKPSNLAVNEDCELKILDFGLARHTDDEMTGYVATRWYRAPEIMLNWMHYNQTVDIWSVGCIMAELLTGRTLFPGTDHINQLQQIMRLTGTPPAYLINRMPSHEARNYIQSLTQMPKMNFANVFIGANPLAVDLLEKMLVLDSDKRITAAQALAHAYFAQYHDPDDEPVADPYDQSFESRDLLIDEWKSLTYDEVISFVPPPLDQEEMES
T3 sequence (O94806 whole entry): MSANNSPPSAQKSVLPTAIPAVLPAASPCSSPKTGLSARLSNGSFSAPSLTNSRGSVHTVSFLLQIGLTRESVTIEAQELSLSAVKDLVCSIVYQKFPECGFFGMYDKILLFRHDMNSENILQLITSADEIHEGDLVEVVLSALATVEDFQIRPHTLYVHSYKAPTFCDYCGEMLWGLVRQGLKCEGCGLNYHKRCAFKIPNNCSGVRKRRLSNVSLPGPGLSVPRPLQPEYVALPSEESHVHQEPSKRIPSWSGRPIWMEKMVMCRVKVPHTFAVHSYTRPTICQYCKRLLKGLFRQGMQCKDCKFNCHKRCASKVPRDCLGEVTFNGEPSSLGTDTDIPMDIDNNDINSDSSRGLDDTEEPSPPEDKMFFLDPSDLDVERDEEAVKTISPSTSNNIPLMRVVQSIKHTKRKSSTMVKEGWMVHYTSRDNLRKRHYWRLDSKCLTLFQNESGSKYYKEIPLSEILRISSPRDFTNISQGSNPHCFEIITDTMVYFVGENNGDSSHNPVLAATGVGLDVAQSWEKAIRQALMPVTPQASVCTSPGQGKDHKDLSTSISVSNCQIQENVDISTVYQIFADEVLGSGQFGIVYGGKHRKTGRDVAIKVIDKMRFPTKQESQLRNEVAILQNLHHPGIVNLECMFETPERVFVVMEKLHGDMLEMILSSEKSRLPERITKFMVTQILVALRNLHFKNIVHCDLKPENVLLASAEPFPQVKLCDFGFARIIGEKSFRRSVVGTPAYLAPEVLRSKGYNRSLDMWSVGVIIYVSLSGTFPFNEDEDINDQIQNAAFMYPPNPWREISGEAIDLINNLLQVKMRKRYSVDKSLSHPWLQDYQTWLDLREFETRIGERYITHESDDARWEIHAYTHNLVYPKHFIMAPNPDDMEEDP

## COc1cc2ncnc(Nc3ccc(F)c(Cl)c3)c2cc1OCCCN [AX14596]
[1]
  Ki: 53.6 µM
  r (3 mg/1 mg lysate): 11.91
  r (5 h/2.5 h inc. time): 1.31
  rAVERAGE (2. inc/1. inc): 0.35
  rAVERAGE (control/1. inc): 0.08
[2]
  Ki: 213 µM
  r (3 mg/1 mg lysate): 3.41
  r (5 h/2.5 h inc. time): 1.06
  rAVERAGE (2. inc/1. inc): 0.68
  rAVERAGE (control/1. inc): 0.04
[3]
  Ki: 1.51 mM
  r (3 mg/1 mg lysate): 2.49
  r (5 h/2.5 h inc. time): 1.05
  rAVERAGE (2. inc/1. inc): 0.94
  rAVERAGE (control/1. inc): 0.08
[4]
  Ki: 168 µM
  r (3 mg/1 mg lysate): 2.87
  rAVERAGE (2. inc/1. inc): 0.63
  rAVERAGE (control/1. inc): 0.03
